# Measured values published in paper PMC10294875, “Ether Derivatives of Naringenin and Their Oximes as Factors Modulating Bacterial Adhesion” (Antibiotics, 2023).
# Tested on: HT-29 cell line
# Assay: SRB assay, antiproliferative activity against HT-29
# Format: cell-based, human
# Settings: 2 h incubation, SRB assay, HT-29
# Procedure: (§1) The human adenocarcinoma cell line, HT-29 (ATCC HTB-38), was cultured in αMEM medium (IITD PAN) supplemented with 10% fetal bovine serum, FBS (Sigma-Aldrich, Taufkirchen, Germany), 100 U/mL penicillin, 100 µg/mL streptomycin antibiotic solution (Sigma-Aldrich, Taufkirchen, Germany), and 2 mM glutamine solution (Sigma-Aldrich, Taufkirchen, Germany). Cells from less than 20 passages were used for the study. In turn, preadipocytes from mouse embryos with the morphology of fibroblast cells, line 3T3-L1 (ATCC CL-173), were cultured in DMEM high-glucose medium (Life Technologies Corporation, Carlsbad, CA, USA) with the same supplements as above. Cells from less than 14 passages were used for the study. Both tested cell lines were grown at 37 °C in 5% CO2.
# (§2) The effect of O-alkyl derivatives of naringenin and their oximes on eukaryotic cells was checked using a slightly modified SRB test described earlier. Firstly, HT-29 (1 × 10^5 cells/mL) and 3T3-L1 (5 × 10^4 cells/mL) cell lines were incubated in adherent microtiter plates under the conditions described above. The cells were then treated for 2 h with the tested compounds 1a–10a and 1b–10b at concentrations of 1, 5, 10, 25, 50, 75, and 100 µg/mL each. After this time, the medium was removed and replaced with one containing 50% (wt/vol) trichloroacetic acid (TCA; Sigma-Aldrich, Taufkirchen, Germany). Following 1 h of incubation at 4 °C, the plate was rinsed with water, and then an acidic solution of 0.4% sulforhodamine B (SRB) (Sigma-Aldrich, Taufkirchen, Germany), was added to the dried wells and incubated in the dark for half an hour. At the end of this time, the SRB solution was replaced by 1% (vol/vol) acetic acid, and the stained protein precipitate was dissolved in 10 mM Tris base solution (pH 10.5). Absorbance was measured at 560 nm in a plate reader (GloMax Discover Microplate Reader, Promega).
# (§3) The cytotoxic effect of O-alkyl derivatives of naringenin and their oximes on eukaryotic cells was expressed as the concentration of the tested compounds at which 50% growth inhibition of the tested cell lines was observed. Values were presented in the form of the survival index (SI)–IC50. All determinations were repeated in three independent experiments, each performed in three technical replicates. Moreover, the effect of DMSO (Sigma-Aldrich, Taufkirchen, Germany), the solvent present in all the initial solutions of the tested compounds, on the growth of the cell lines used in the study was also verified.
row,SMILES,IC50 HT-29 [µg/mL]
1,"ON=C1C[C@@H](c2ccc(O)cc2)Oc2cc(O)cc(O)c21 [NGOX, naringenin oxime, reference compound]",>100

# Same assay, conditions: HT-29, 1a vs 7a
row,SMILES,IC50 lower than compound 7a (ratio) [times]
1,"CCCCCCOc1cc(O)c2c(c1)O[C@H](c1ccc(O)cc1)CC2=O [Compound 1a, 7-O-hexylnaringenin]",1.8

# Same assay, conditions: Homo sapiens; 2 h incubation, SRB assay, HT-29
row,SMILES,IC50 [µg/mL]
1,"CCCCCCCCCCCOc1ccc([C@@H]2CC(=O)c3c(O)cc(OCCCCCCCCCCC)cc3O2)cc1 [Compound 10a, 7,4’-di-O-undecylnaringenin]",> 100
2,"CCCCCCCCOc1ccc([C@@H]2CC(=NO)c3c(O)cc(OCCCCCCCC)cc3O2)cc1 [Compound 6b, 7,4’-di-O-octylnaringenin oxime]",> 100
3,"CCCCCCCOc1ccc([C@@H]2CC(=O)c3c(O)cc(OCCCCCCC)cc3O2)cc1 [Compound 4a, 7,4’-di-O-heptylnaringenin]",> 100
4,"CCCCCCCOc1cc(O)c2c(c1)O[C@H](c1ccc(O)cc1)CC2=O [Compound 3a, 7-O-heptylnaringenin]",28.7
5,"CCCCCCCCCOc1cc(O)c2c(c1)O[C@H](c1ccc(O)cc1)CC2=NO [Compound 7b, 7-O-nonylnaringenin oxime]",57.8
6,"CCCCCCOc1cc(O)c2c(c1)O[C@H](c1ccc(O)cc1)CC2=O [Compound 1a, 7-O-hexylnaringenin]",25.4
7,"CCCCCCCCCOc1cc(O)c2c(c1)O[C@H](c1ccc(O)cc1)CC2=O [Compound 7a, 7-O-nonylnaringenin]",46.7
8,"CCCCCCOc1ccc([C@@H]2CC(=NO)c3c(O)cc(OCCCCCC)cc3O2)cc1 [Compound 2b, 7,4’-di-O-hexylnaringenin oxime]",> 100
9,"CCCCCCCCCOc1ccc([C@@H]2CC(=O)c3c(O)cc(OCCCCCCCCC)cc3O2)cc1 [Compound 8a, 7,4’-di-O-nonylnaringenin]",> 100

# Same assay, conditions: SRB, tested concentration range 1–100 µg/mL
row,SMILES,cytotoxic / antiproliferative effect against HT-29 (in words)
1,"CCCCCCCCCCCOc1ccc([C@@H]2CC(=O)c3c(O)cc(OCCCCCCCCCCC)cc3O2)cc1 [Compound 10a, 7,4’-di-O-undecylnaringenin]",no effect
2,"CCCCCCCOc1ccc([C@@H]2CC(=O)c3c(O)cc(OCCCCCCC)cc3O2)cc1 [Compound 4a, 7,4’-di-O-heptylnaringenin]",no effect
3,"CCCCCCCOc1cc(O)c2c(c1)O[C@H](c1ccc(O)cc1)CC2=O [Compound 3a, 7-O-heptylnaringenin]",antiproliferative activity
4,"CCCCCCCCCOc1cc(O)c2c(c1)O[C@H](c1ccc(O)cc1)CC2=NO [Compound 7b, 7-O-nonylnaringenin oxime]",cytotoxic effects
5,"CCCCCCOc1cc(O)c2c(c1)O[C@H](c1ccc(O)cc1)CC2=O [Compound 1a, 7-O-hexylnaringenin]",antiproliferative activity
6,"CCCCCCCCCOc1cc(O)c2c(c1)O[C@H](c1ccc(O)cc1)CC2=O [Compound 7a, 7-O-nonylnaringenin]",antiproliferative activity
7,"CCCCCCCCCOc1ccc([C@@H]2CC(=O)c3c(O)cc(OCCCCCCCCC)cc3O2)cc1 [Compound 8a, 7,4’-di-O-nonylnaringenin]",no effect

# Tested on: 3T3-L1 cell line
# Assay: SRB assay, antiproliferative activity against 3T3-L1
# Format: cell-based, mouse
# Settings: 2 h incubation, SRB assay, 3T3-L1
# Procedure: as §1, §2, §3
row,SMILES,IC50 3T3-L1 [µg/mL]
1,"ON=C1C[C@@H](c2ccc(O)cc2)Oc2cc(O)cc(O)c21 [NGOX, naringenin oxime, reference compound]",>100

# Same assay, conditions: Mus musculus; 2 h incubation, SRB assay, 3T3-L1
row,SMILES,IC50 [µg/mL]
1,"CCCCCCCCCCCOc1ccc([C@@H]2CC(=O)c3c(O)cc(OCCCCCCCCCCC)cc3O2)cc1 [Compound 10a, 7,4’-di-O-undecylnaringenin]",> 100
2,"CCCCCCCCOc1ccc([C@@H]2CC(=NO)c3c(O)cc(OCCCCCCCC)cc3O2)cc1 [Compound 6b, 7,4’-di-O-octylnaringenin oxime]",> 100
3,"CCCCCCCOc1ccc([C@@H]2CC(=O)c3c(O)cc(OCCCCCCC)cc3O2)cc1 [Compound 4a, 7,4’-di-O-heptylnaringenin]",> 100
4,"CCCCCCCOc1cc(O)c2c(c1)O[C@H](c1ccc(O)cc1)CC2=O [Compound 3a, 7-O-heptylnaringenin]",25.6
5,"CCCCCCCCCOc1cc(O)c2c(c1)O[C@H](c1ccc(O)cc1)CC2=NO [Compound 7b, 7-O-nonylnaringenin oxime]",41.6
6,"CCCCCCOc1cc(O)c2c(c1)O[C@H](c1ccc(O)cc1)CC2=O [Compound 1a, 7-O-hexylnaringenin]",25.8
7,"CCCCCCCCCOc1cc(O)c2c(c1)O[C@H](c1ccc(O)cc1)CC2=O [Compound 7a, 7-O-nonylnaringenin]",22.2
8,"CCCCCCOc1ccc([C@@H]2CC(=NO)c3c(O)cc(OCCCCCC)cc3O2)cc1 [Compound 2b, 7,4’-di-O-hexylnaringenin oxime]",> 100
9,"CCCCCCCCCOc1ccc([C@@H]2CC(=O)c3c(O)cc(OCCCCCCCCC)cc3O2)cc1 [Compound 8a, 7,4’-di-O-nonylnaringenin]",> 100

# Same assay, conditions: SRB, tested concentration range 1–100 µg/mL
row,SMILES,cytotoxic / antiproliferative effect against 3T3-L1 (in words)
1,"CCCCCCCCCCCOc1ccc([C@@H]2CC(=O)c3c(O)cc(OCCCCCCCCCCC)cc3O2)cc1 [Compound 10a, 7,4’-di-O-undecylnaringenin]",no effect
2,"CCCCCCCOc1ccc([C@@H]2CC(=O)c3c(O)cc(OCCCCCCC)cc3O2)cc1 [Compound 4a, 7,4’-di-O-heptylnaringenin]",no effect
3,"CCCCCCCOc1cc(O)c2c(c1)O[C@H](c1ccc(O)cc1)CC2=O [Compound 3a, 7-O-heptylnaringenin]",cytotoxic activity
4,"CCCCCCOc1cc(O)c2c(c1)O[C@H](c1ccc(O)cc1)CC2=O [Compound 1a, 7-O-hexylnaringenin]",cytotoxic activity
5,"CCCCCCCCCOc1cc(O)c2c(c1)O[C@H](c1ccc(O)cc1)CC2=O [Compound 7a, 7-O-nonylnaringenin]",cytotoxic activity
6,"CCCCCCCCCOc1ccc([C@@H]2CC(=O)c3c(O)cc(OCCCCCCCCC)cc3O2)cc1 [Compound 8a, 7,4’-di-O-nonylnaringenin]",no effect

# Tested on: Escherichia coli K12 (ATCC 10798)
# Assay: Adhesion assay, static conditions: E. coli to 3T3-L1 cell line
# Format: cell-based
# Settings: regardless of the concentration used
# Procedure: (§4) The study used two reference strains, Escherichia coli K12 (ATCC 10798) and Enterococcus faecalis (ATCC 29212), obtained from the American Type Culture Collection. Both strains were stored in trypticase soy broth (TSB; OXOID, Basingstoke, UK) with the addition of 30% glycerol at −70 °C in the museum resources of the Department of Microbiology at the Wroclaw Medical University.
# (§5) For studies determining the interaction of bacteria with eukaryotic cells, suspensions of the tested strains were prepared in Luria broth (LB, Becton, Dickinson and Company, USA) medium with a bacterial density of 6 × 10^8 CFU/mL.
# (§6) The adhesion ability of the tested bacterial strains to HT-29 and 3T3-L1 cell lines was determined by an in vitro adhesion assay as described previously. Eukaryotic cells were infected with prokaryotic cells in the presence of the examined compounds in pre-selected concentrations at an MOI (multiplicity of infection) ratio of 50. Cells were exposed to the tested strains and compounds for 2 h. After this time, unbound bacteria were removed by washing with PBS (Life Technologies Corporation, Carlsbad, CA, USA). The lysates acquired by cell lysis (0.5% Triton X-100 in LB): 90 min, 37 °C, 5% CO2 atmosphere, were then seeded onto TSA and MC media for E. faecalis and E. coli, respectively. The assays were performed in at least three independent experiments (cells from subsequent passages), each in triplicate. A control without tested compounds was set for each strain.
row,SMILES,"bacterial adhesion disturbed (decrease), E. coli to 3T3-L1"
1,"CCCCCCCCCCCOc1ccc([C@@H]2CC(=O)c3c(O)cc(OCCCCCCCCCCC)cc3O2)cc1 [Compound 10a, 7,4’-di-O-undecylnaringenin]",≈ 2 fold

# Tested on: Enterococcus faecalis (ATCC 29212)
# Assay: Adhesion assay, static conditions: E. faecalis to 3T3-L1 cell line
# Format: cell-based
# Settings: not given
# Procedure: as §4, §5, §6
row,SMILES,effect on adhesion of E. faecalis to 3T3-L1 (in words)
1,"CCCCCCCCCOc1cc(O)c2c(c1)O[C@H](c1ccc(O)cc1)CC2=NO [Compound 7b, 7-O-nonylnaringenin oxime]",often actually limited the attachment
2,"CCCCCCCCCOc1cc(O)c2c(c1)O[C@H](c1ccc(O)cc1)CC2=O [Compound 7a, 7-O-nonylnaringenin]",often actually limited the attachment
